IC50 data for 64 compounds are collected here from US10183949B2, “Pyrimidinone derivative having autotaxin-inhibitory activity” (The University of Tokyo, priority 2014, dated 2019).

The assay deals with T1, Human autotaxin enzyme (Homo sapiens, UniProt Q13822).
T1 construct: purchased R&D System
Nature of the assay: Evaluation of autotaxin inhibitor, 18:0 Lyso PC / choline assay (Test Example 2). It is filed as biochemical. Particulars: human autotaxin enzyme, 18:0 Lyso PC substrate, choline assay, room temperature 2 hours; read-out: Inhibitor activity (IC50). How it is done:
Solution B containing 100 mM Tris-HCl buffer (pH7.5), 150 mM NaCl, 5 mM MgCl2, and 0.05% Triton X-100 was prepared. Human autotaxin enzyme (purchased from R&D System) was diluted with Solution B, and 2.5 μl of which was added to a solution of test compound in DMSO. Furthermore, 2.5 μl of 200 μM 18:0 Lyso PC (purchased from Avanti Polar Lipids) in Solution B was added and allowed to react at room temperature for 2 hours. After completion of the reaction, 15 μl of the coline assay reagent. (100 mM Tris-HCl buffer (pH7.5), 5 mM. MgCl2, 77 μg/ml coline oxidase, 10 μg/ml peroxydase, 25μM 10-acetyl-3,7-dihydroxyphenoxazine, and excess autotaxin inhibitor) was added and allowed to react at room temperature for 20 minutes. The fluorescent dye Resorufin, which was produced by the reaction, was detected. The fluorescence was detected using ViewLux
(PerkinElmer, Inc.) with a excitation wavelength of 531 nm and a fluorescence wavelength of 598 nm.
The percent inhibition of the test compound was calculated by assuming the sample with no test compound as 0% inhibition and the sample with no enzyme as 100% inhibition, and the percent inhibitions at different concentrations of the test compound were plotted to obtain a concentration-dependent curve.
For orientation: IC50 means the concentration that inhibits the measured activity by half. Take `CCCCCn1c(-c2ccc(Cl)cc2)cc(=O)n(C)c1=N` [Compound I-0001]: the IC50 is at least 1 µM.

As to `CCCCCc1nc(-c2ccc(Cl)cc2)[nH]c(=O)c1Cc1ccc(C(=O)O)cc1` [Compound I-0002], the IC50 was 0.1 to 1 µM.

Turning to `CCCCCc1nc(-c2ccc(Cl)cc2)[nH]c(=O)c1Cc1cccc(C(=O)O)c1` [Compound I-0003], the IC50 is 0.1 to 1 µM.

With `CCCCCNc1nc(-c2ccc(C(F)(F)F)cc2)cc(=O)n1Cc1ccccc1` [Compound I-0004], the IC50 was at least 1 µM.

Turning to `CCCCCc1nc(-c2ccc(Cl)cc2)cc(=O)n1C` [Compound I-0005], the IC50 is at least 1 µM.

`CCCCCc1nc(-c2ccc(Cl)cc2)cc(=O)n1CC` [Compound I-0006]: the IC50 is at least 1 µM.

As for `CCCCCc1nc(-c2ccc(Cl)cc2)cc(=O)n1Cc1ccccc1` [Compound I-0007], the IC50 is at least 1 µM.

As to `CCCCCc1nc(-c2ccc(Cl)cc2)cc(=O)n1Cc1ccc(C(=O)O)cc1` [Compound I-0008], the IC50 fell in the range of 0.1 to 1 µM.

Regarding `CCCCCc1nc(-c2ccc(Cl)cc2)cc(=O)n1Cc1cccc(C(=O)O)c1` [Compound I-0009], the IC50 is 0.01 to 0.1 µM.

Regarding `CCCCCNc1nc(-c2ccc(C(F)(F)F)cc2)cc(=O)n1Cc1ccc(C(=O)O)cc1` [Compound I-0010], the IC50 fell in the range of 0.1 to 1 µM.

Consider `CCCCCNc1nc(-c2ccc(C(F)(F)F)cc2)cc(=O)n1Cc1cccc(C(=O)OC(C)(C)C)c1` [Compound I-0011], for which the IC50 is at least 1 µM.

Take `CCCCCNc1nc(-c2ccc(C(F)(F)F)cc2)cc(=O)n1Cc1cccc(C(=O)O)c1` [Compound I-0012]: the IC50 was in the range of 0.01 to 0.1 µM.

Regarding `CCCCCNc1nc(-c2ccc(C(F)(F)F)cc2)cc(=O)n1Cc1cccc(C(=O)NCC(N)=O)c1` [Compound I-0013], the IC50 lay within 0.1 to 1 µM.

Turning to `CCCCCNc1nc(-c2ccc(C(F)(F)F)cc2)cc(=O)n1Cc1cccc(C(=O)NC(Cc2ccccc2)C(=O)O)c1` (stereo not shown) [Compound I-0014], the IC50 lay within 0.1 to 1 µM.

Consider `CCCCCNc1nc(-c2ccc(C(F)(F)F)cc2)cc(=O)n1Cc1cccc(C(=O)NCC(=O)O)c1` [Compound I-0015], for which the IC50 lay within 0.01 to 0.1 µM.

For `CCCCCNc1nc(-c2ccc(C(F)(F)F)cc2)cc(=O)n1Cc1cccc(C(=O)NCCC(=O)O)c1` [Compound I-0016], the IC50 lay in the range of 0.1 to 1 µM.

`CCCCCNc1nc(-c2ccc(C(F)(F)F)cc2)cc(=O)n1Cc1ccc(C(=O)NC(Cc2ccccc2)C(=O)O)cc1` (stereo not shown) [Compound I-0017]: the IC50 is 0.1 to 1 µM.

For `CCCCCNc1nc(-c2ccc(C(F)(F)F)cc2)cc(=O)n1Cc1ccc(C(=O)NCC(=O)O)cc1` [Compound I-0018], the IC50 was 0.1 to 1 µM.

As for `CCCCCNc1nc(-c2ccc(C(F)(F)F)cc2)cc(=O)n1Cc1ccc(C(=O)NCC(N)=O)cc1` [Compound I-0019], the IC50 was at least 1 µM.

Regarding `CCCCCNc1nc(-c2ccc(C#N)cc2)cc(=O)n1Cc1cccc(C(=O)OC(C)(C)C)c1` [Compound I-0021], the IC50 fell in the range of 0.1 to 1 µM.

For the compound `CCCCCNc1nc(-c2ccc(C#N)cc2)cc(=O)n1Cc1cccc(C(=O)O)c1` [Compound I-0022], the IC50 fell in the range of 0.01 to 0.1 µM.

On to `CCCCCc1nc(-c2ccc(Cl)cc2)cc(=O)n1CC(=O)OC` [Compound I-0023], for which the IC50 is 0.01 to 0.1 µM.

Take `CCCCCc1nc(-c2ccc(Cl)cc2)cc(=O)n1CC(=O)NC(Cc1ccccc1)C(=O)O` (stereo not shown) [Compound I-0024]: the IC50 is under 0.01 µM.

As to `CCCCCc1nc(-c2ccc(Cl)cc2)cc(=O)n1CC(=O)NC(C)C` [Compound I-0026], the IC50 lay within 0.01 to 0.1 µM.

In the case of `CCCCCc1nc(-c2ccc(Cl)cc2)cc(=O)n1CC(=O)NCCO` [Compound I-0027], the IC50 was in the range of 0.1 to 1 µM.

In the case of `CCCCCc1nc(-c2ccc(Cl)cc2)cc(=O)n1CC(=O)NC1COC1` [Compound I-0028], the IC50 lay within 0.01 to 0.1 µM.

As for `CCCCCc1nc(-c2ccc(Cl)cc2)cc(=O)n1CC(=O)N(C)CCO` [Compound I-0029], the IC50 lay within 0.1 to 1 µM.

Turning to `CCCCCc1nc(-c2ccc(Cl)cc2)cc(=O)n1CC(=O)NCCCO` [Compound I-0030], the IC50 was 0.1 to 1 µM.

For the compound `CCCCCc1nc(-c2ccc(Cl)cc2)cc(=O)n1CC(=O)NCCC(N)=O` [Compound I-0031], the IC50 lay in the range of 0.1 to 1 µM.

Turning to `CCCCCc1nc(-c2ccc(Cl)cc2)cc(=O)n1CC(=O)NCCN(C)C` [Compound I-0032], the IC50 lay in the range of 0.1 to 1 µM.

As for `CCCCCc1nc(-c2ccc(Cl)cc2)cc(=O)n1CC(=O)NCC1(CO)CC1` [Compound I-0033], the IC50 is 0.01 to 0.1 µM.

Consider `CCCCCc1nc(-c2ccc(Cl)cc2)cc(=O)n1CC(=O)NCc1ccccc1` [Compound I-0034], for which the IC50 lay in the range of 0.1 to 1 µM.

For `CCCCCc1nc(-c2ccc(Cl)cc2)cc(=O)n1CC(=O)NCC1(CO)COC1` [Compound I-0035], the IC50 fell in the range of 0.01 to 0.1 µM.

On to `CCCCCc1nc(-c2ccc(Cl)cc2)cc(=O)n1CC(=O)N(C)Cc1ccccc1` [Compound I-0036], for which the IC50 was in the range of 0.1 to 1 µM.

As to `CCCCCc1nc(-c2ccc(Cl)cc2)cc(=O)n1CC(=O)NCC1CCC(=O)NC1` (stereo not shown) [Compound I-0037], the IC50 lay in the range of 0.1 to 1 µM.

For `CCCCCc1nc(-c2ccc(Cl)cc2)cc(=O)n1CC(=O)NCc1cccc(=O)n1C` [Compound I-0038], the IC50 was in the range of 0.1 to 1 µM.

Consider `CCCCCc1nc(-c2ccc(Cl)cc2)cc(=O)n1CC(=O)NC(C)C(=O)O` (stereo not shown) [Compound I-0039], for which the IC50 lay in the range of 0.01 to 0.1 µM.

For the compound `CCCCCc1nc(-c2ccc(Cl)cc2)cc(=O)n1CC(=O)NCCC(=O)O` [Compound I-0040], the IC50 is 0.01 to 0.1 µM.

For the compound `CCCCCc1nc(-c2ccc(Cl)cc2)cc(=O)n1CC(=O)NCc1ccc(C(=O)O)cc1` [Compound I-0041], the IC50 lay within 0.01 to 0.1 µM.

Take `CCCCCc1nc(-c2ccc(Cl)cc2)cc(=O)n1CC(=O)N1CCC(C(=O)O)CC1` [Compound I-0042]: the IC50 is under 0.01 µM.

Regarding `CCCCCc1nc(-c2ccc(Cl)cc2)cc(=O)n1CC(=O)NCCCCCC(=O)O` [Compound I-0043], the IC50 was in the range of 0.01 to 0.1 µM.

For the compound `CCCCCc1nc(-c2ccc(Cl)cc2)cc(=O)n1CC(=O)NCCCC(=O)O` [Compound I-0044], the IC50 is under 0.01 µM.

Turning to `CCCCCc1nc(-c2ccc(Cl)cc2)cc(=O)n1CC(=O)N1CCC(CC(=O)O)CC1` [Compound I-0045], the IC50 is under 0.01 µM.

As to `CCCCCc1nc(-c2ccc(Cl)cc2)cc(=O)n1CC(=O)N1CCC(c2ccccc2C(=O)O)CC1` [Compound I-0046], the IC50 lay in the range of 0.01 to 0.1 µM.

On to `CCCCCc1nc(-c2ccc(Cl)cc2)cc(=O)n1CC(=O)N1CCCC(c2ccc(C(=O)O)cc2)C1` (stereo not shown) [Compound I-0047], for which the IC50 is 0.1 to 1 µM.

As to `CCCCCc1nc(-c2ccc(Cl)cc2)cc(=O)n1CC(=O)N1CCN(CC(=O)O)CC1` [Compound I-0048], the IC50 is under 0.01 µM.

As to `CCCCCc1nc(-c2ccc(Cl)cc2)cc(=O)n1CC(=O)N1CCCCC1C(=O)O` (stereo not shown) [Compound I-0049], the IC50 was in the range of 0.1 to 1 µM.

In the case of `CCCCCc1nc(-c2ccc(Cl)cc2)cc(=O)n1CC(=O)NC(C(=O)O)C(C)C` (stereo not shown) [Compound I-0050], the IC50 was in the range of 0.1 to 1 µM.

For `CCCCCc1nc(-c2ccc(Cl)cc2)cc(=O)n1CC(=O)NC(CC)C(=O)O` (stereo not shown) [Compound I-0051], the IC50 was under 0.01 µM.

In the case of `CCCCCc1nc(-c2ccc(Cl)cc2)cc(=O)n1CC(=O)NC(CO)C(=O)O` (stereo not shown) [Compound I-0052], the IC50 was under 0.01 µM.

Take `CCCCCc1nc(-c2ccc(Cl)cc2)cc(=O)n1CC(=O)N1CCC(c2cccc(C(=O)O)c2)CC1` [Compound I-0053]: the IC50 was 0.01 to 0.1 µM.

Turning to `CCCCCc1nc(-c2ccc(Cl)cc2)cc(=O)n1CC(=O)NCc1ccccc1C(=O)O` [Compound I-0054], the IC50 lay within 0.1 to 1 µM.

Turning to `CCCCCc1nc(-c2ccc(Cl)cc2)cc(=O)n1CC(=O)NCC(=O)NCC(=O)O` [Compound I-0055], the IC50 was under 0.01 µM.

With `CCCCCc1nc(-c2ccc(Cl)cc2)cc(=O)n1CC(=O)NC(C)(C)C(=O)O` [Compound I-0056], the IC50 is under 0.01 µM.

As for `CCCCCc1nc(-c2ccc(Cl)cc2)cc(=O)n1CC(=O)NC1(C(=O)O)CCCC1` [Compound I-0057], the IC50 was 0.01 to 0.1 µM.

Consider `CCCCCc1nc(-c2ccc(Cl)cc2)cc(=O)n1CC(=O)NC1(C(=O)O)CCOCC1` [Compound I-0058], for which the IC50 is at least 1 µM.

For the compound `CCCCCc1nc(-c2ccc(Cl)cc2)cc(=O)n1CC(=O)NCC(=O)N1CCC(C(=O)O)CC1` [Compound I-0059], the IC50 is 0.01 to 0.1 µM.

As to `CCCCCc1nc(-c2ccc(Cl)cc2)cc(=O)n1CC(=O)NC(C(=O)O)c1ccc(O)cc1` (stereo not shown) [Compound I-0060], the IC50 lay in the range of 0.01 to 0.1 µM.

Consider `CCCCCc1nc(-c2ccc(Cl)cc2)cc(=O)n1CC(=O)NC(CC(=O)O)c1ccccc1` (stereo not shown) [Compound I-0061], for which the IC50 was in the range of 0.01 to 0.1 µM.

Turning to `CCCCCc1nc(-c2ccc(Cl)cc2)cc(=O)n1CC(=O)N(CCC(=O)O)C1CCCC1` [Compound I-0062], the IC50 fell in the range of 0.01 to 0.1 µM.

Consider `CCCCCc1nc(-c2ccc(Cl)cc2)cc(=O)n1CC(=O)NC1CCC(C(=O)O)CC1` (stereo not shown) [Compound I-0063], for which the IC50 was under 0.01 µM.

Regarding `CCCCCc1nc(-c2ccc(Cl)cc2)cc(=O)n1CC(=O)NCCCCC(=O)O` [Compound I-0064], the IC50 is under 0.01 µM.

As for `CCCCCc1nc(-c2ccc(Cl)cc2)cc(=O)n1CC(=O)NCC(=O)O` [Compound I-0065], the IC50 fell in the range of 0.01 to 0.1 µM.

Regarding `CCCCCc1nc(-c2ccc(Cl)cc2)cc(=O)n1CC(=O)N1CCC(C(=O)O)C1` (stereo not shown) [Compound I-0066], the IC50 was at least 1 µM.
